According to patent publication US5026836A, “6-sulfenamide, 6-sulfinamide and 6-sulfonamide purines, purine nucleosides, purine nucleotides, pharmaceutical compositions, and processes of making” (priority 1988, dated 1991):
“Also recorded” adds a separate entry of the source. Read-outs that look alike come from different tables or passages of the source.

How the values were obtained:
[1] = Solubility (maximum solubility); assay type: physicochemical
[2] = test system: L1210 cells; test: Bioassay of viable L1210 cells in brain after intracranial inoculation and ip drug; assay type: in vivo, mouse; settings: for crossing of blood brain barrier / CNS penetration (words): mouse, in vivo
Excerpt: BDF1 mice were inoculated intracranially on day 0 with 1×10^5 L1210 cells. […] 24 hr after drug delivery the brains were collected, homogenized, and injected ip into untreated mice. Each mouse received the equivalent of half a brain. Thereafter, life span was monitored and, using inoculum-response data as a base of comparison, estimates were made of the numbers of viable cells in treated and control brains.

[3] = test system: Colon 26 Adenocarcinoma; test: Survival of CDF1 mice bearing Colon 26 Adenocarcinoma; assay type: in vivo, mouse; settings: for T/C (%): ≥150% significant
Protocol: In Example Q Compound 19 was tested against Colon 26 Adenocarcinoma.

[4] = Toxicity / maximum tolerated dosage in mice; assay type: in vivo
Protocol: In Example N other compounds of the invention were tested against L1210 cells. […] Activity in Table 14-a is tabulated as both increases in life span and as cells surviving treatment and that in table 14-b as T/C.

[5] = test system: L1210/MTX cells; test: Methotrexate resistant L1210 cells surviving treatment; assay type: in vivo, mouse
Protocol: In Example I Compound 19 was tested against Methotrexate resistant L1210 cells.

[6] = test system: Murine Glioma 261; test: Murine Glioma 261 tumor weight in C57B1/6 mice; assay type: in vivo, mouse; settings: qd days 1-9; for Attained tumor wt (Mean ± 1SD): day 10; for T/C (%): active at or below 42%
Protocol: Compound 19 was also tested against Murine Glioma 261. In this test activity is indicated at levels of T/C below 42%. As is shown in Table 19, Compound 19 is active at various doses against this tumor system.

[7] = test system: reticulum cell sarcoma M5076; test: Reticulum cell sarcoma M5076 tumor weight in C57B1/6 mice; assay type: in vivo, mouse; settings: qd days 1,3,5,7,9,11; for Tumor wt, staging day (mean ± 1SD): before treatment (day 15 post inoculation); for Tumor wt, evaluation day (mean ± 1SD): day 12 of treatment
Protocol: (§1) In this example Compound 19 was tested against reticulum cell sarcoma M5076. For this and certain other tests below, test results are shown as δT/δC. Utilizing this protocol the difference in tumor weight before treatment and after treatment of the treated animals compared to the control animals is determined.

[8] = test system: human mammary carcinoma MX-1; test: Human mammary carcinoma MX-1 tumor weight in nu/nu mice; assay type: in vivo; settings: qd days 1,3,5,7,9,11; for Tumor wt, staging day (mean ± 1SD): before treatment (day 17 post implant); for Tumor wt, evaluation day (mean ± 1SD): day 15 of treatment; for δT/δC: ≤20% moderate activity
Protocol: as §1
In Example P Compound 19 was tested against human mammary carcinoma MX-1.

[9] = test system: drug resistant cell lines; test: Generation of drug resistant cell lines
[10] = test system: L1210/6MP, 6TG, 6TGR cells; test: L1210/6MP, 6TG, 6TGR cells surviving treatment; assay type: in vivo, mouse; settings: for RCP (Residual Cell Population): L1210/6MP,6TG
Protocol: In Example G Compound 19 was tested against both L1210 cells and L1210 cells which were resistant to 6-Mercaptopurine, 6-Thioguanine and 6-Thioguanosine. […] As was noted above, drugs in the 6-Mercaptopurine family are presently among the drugs of choice for treatment of leukemia.

[11] = test system: L1210/5FU cells; test: 5-Fluorouracil resistant L1210 cells surviving treatment; assay type: in vivo, mouse
Protocol: In Examples G through K Compound 19 was tested against L1210 cell lines which had developed resistance to other known cancer chemotherapeutic agents.
In Example J, the results of which are shown in Table 10 below, Compound 19 was tested against 5-Fluorouracil resistant cells.

[12] = test system: Lewis lung carcinoma; test: Activity against Lewis lung carcinoma; settings: in vivo
[13] = listed as 2-amino-9-β-D-ribofuranosyl-9H-purine-6-sulfinamide
[14] = ip 62 mg/kg/inj, bid days 1,4,7
[15] = ip 104 mg/kg/inj, qd days 1,3,5,7
[16] = ip 104 mg/kg/inj, qd days 1,4,7
[17] = ip 173 mg/kg/inj, qd days 1,3,5,7
[18] = ip 173 mg/kg/inj, qd days 1,4,7

Nc1nc([S+](N)[O-])c2ncn([C@@H]3O[C@H](CO)[C@@H](O)[C@H]3O)c2n1 (mixture of isomers) [Compound 19, 2-amino-9-β-D-ribofuranosyl-9H-purine-6-sulfinamide]
Maximum solubility (as dosage) [1]: 288 mg/kg
maximum solubility (as dose) [1]: 288 mg per kg
solubility relative to enantiomer B [1]: exhibits solubility characteristics of enantiomer B
water solubility [1]: water soluble
Residual cells (% of control brain) ([2]; 24 hr after single ip dose (mg/kg): Methotrexate 12, Adriamycin 3, 6-Mercaptopurine 160, Cytosine Arabinoside 1200, Cyclophosphamide 140, Compound 19 173, Tiazofurin 1200, BCNU 20): 7.9%
intracranial activity ([2]; intracranial L1210): significant reduction in the number of neoplastic cells in the brain; also recorded: active intracranially
cell/half brain day 2, cell number ([2]; ip 173 mg/kg day 1): 261016 cell/half brain
cell/half brain day 2, log10 ([2]; ip 173 mg/kg day 1): 5.42 log10
change due to drug, cells ([2]; ip 173 mg/kg day 1, vs control): -92.08%
change due to drug, log10 ([2]; ip 173 mg/kg day 1, vs control): -1.10 log10
crossing of blood brain barrier / CNS penetration (words) [2]: effectively cross the blood brain barrier
crossing of blood brain barrier / CNS penetration (words) [2, 13]: able to penetrate the central nervous system; also recorded: penetrating the central nervous system
Median survival time [3, 14]: 45 days post inoculation
T/C (%) [3, 14]: 196%
Median survival time ([3]; ip 62 mg/kg/inj, qd days 1-7): 40 days post inoculation
T/C (%) ([3]; ip 62 mg/kg/inj, qd days 1-7): 174%
Median survival time ([3]; ip 104 mg/kg/inj, bid days 1,4,7, group included 6 toxic deaths): 17 days post inoculation
Median survival time [3, 15]: 34 days post inoculation
T/C (%) [3, 15]: 148%
Median survival time [3, 16]: 31 days post inoculation
T/C (%) [3, 16]: 135%
Median survival time ([3]; ip 104 mg/kg/inj, qd days 1-7): 38 days post inoculation
T/C (%) ([3]; ip 104 mg/kg/inj, qd days 1-7): 165%
Median survival time [3, 17]: 42 days post inoculation
T/C (%) [3, 17]: 183%
Median survival time [3, 18]: 31 days post inoculation
T/C (%) [3, 18]: 135%
mice which died from drug toxicity ([4]; ip 104 mg/kg/inj, bid days 1,4,7, L1210-inoculated BDF1 mice): 1
toxicity (T/C column) ([4]; ip 288 mg/kg, qd day 1, L1210-inoculated BDF1 mice): TOX
mortality ([4]; mouse, in vivo, 104 mg/kg, bid days 1,4,7, L1210-inoculated mice, read-out: toxic deaths per number of animals in test group (converted)): 20%
activity against Methotrexate resistant cells ([5]; depending on dose level and regimen): activity can be seen against these Methotrexate resistant cells
L1210/MTX cells surviving (% of day zero inoculum) ([5]; ip 104 mg/kg/day, qd days 1,4,7): 238.4%
L1210/MTX cells surviving (% of day zero inoculum) ([5]; ip 173 mg/kg/day, qd day 1): 1.6%
L1210/MTX cells surviving (% of day zero inoculum) ([5]; ip 173 mg/kg/day, qd days 1,4,7): 33.8%
Attained tumor wt (Mean ± 1SD) ([6]; ip 22 mg/kg/inj): 80 ± 130 mg
Attained tumor wt (Mean ± 1SD) ([6]; ip 37 mg/kg/inj): 119 ± 105 mg
Attained tumor wt (Mean ± 1SD) ([6]; ip 62 mg/kg/inj): 137 ± 124 mg
Attained tumor wt (Mean ± 1SD) ([6]; ip 104 mg/kg/inj): 5 ± 5 mg
T/C (%) ([6]; ip 22 mg/kg/inj): 22.9%
T/C (%) ([6]; ip 37 mg/kg/inj): 34.1%
T/C (%) ([6]; ip 62 mg/kg/inj): 39.3%
T/C (%) ([6]; ip 104 mg/kg/inj): 1.4%
Tumor wt, staging day (mean ± 1SD) ([7]; ip 110.8 mg/kg/inj group): 396 ± 116 mg
Tumor wt, staging day (mean ± 1SD) ([7]; ip 138.4 mg/kg/inj group): 355 ± 79 mg
Tumor wt, staging day (mean ± 1SD) ([7]; ip 173.0 mg/kg/inj group): 354 ± 81 mg
Tumor wt, evaluation day (mean ± 1SD) ([7]; ip 110.8 mg/kg/inj): 1121 ± 343 mg
Tumor wt, evaluation day (mean ± 1SD) ([7]; ip 138.4 mg/kg/inj): 855 ± 325 mg
Tumor wt, evaluation day (mean ± 1SD) ([7]; ip 173.0 mg/kg/inj): 409 ± 385 mg
δT/δC ([7]; ip 110.8 mg/kg/inj): 65.8
δT/δC ([7]; ip 138.4 mg/kg/inj): 45.4
δT/δC ([7]; ip 173.0 mg/kg/inj): 5.0
Tumor wt, staging day (mean ± 1SD) ([8]; ip 110.8 mg/kg/inj group): 321 ± 132 mg
Tumor wt, staging day (mean ± 1SD) ([8]; ip 138.4 mg/kg/inj group): 330 ± 118 mg
Tumor wt, staging day (mean ± 1SD) ([8]; ip 173.0 mg/kg/inj group): 323 ± 127 mg
Tumor wt, evaluation day (mean ± 1SD) ([8]; ip 110.8 mg/kg/inj): 943 ± 297 mg
Tumor wt, evaluation day (mean ± 1SD) ([8]; ip 138.4 mg/kg/inj): 884 ± 415 mg
Tumor wt, evaluation day (mean ± 1SD) ([8]; ip 173.0 mg/kg/inj): 489 ± 104 mg
δT/δC ([8]; ip 110.8 mg/kg/inj): 66.1%
δT/δC ([8]; ip 138.4 mg/kg/inj): 58.9%
δT/δC ([8]; ip 173.0 mg/kg/inj): 17.6%
generation of drug resistant cell lines (words) [9]: has not been found to generate resistant cell lines
generation of drug resistant cell lines (words) [9, 13]: lack of generating resistant cell lines; also recorded: lack of resistance cell generation
RCP (Residual Cell Population) ([10]; ip 37 mg/kg/inj, bid days 1,3,5,7): .28
RCP (Residual Cell Population) [10, 14]: .09
L1210/6MP, 6TG, 6TGR cells surviving (% of day zero inoculum) ([10]; ip 62 mg/kg, bid day 1): 15.9%
L1210/6MP, 6TG, 6TGR cells surviving (% of day zero inoculum) ([10]; ip 62 mg/kg, qd day 1): 15.9%
L1210/6MP, 6TG, 6TGR cells surviving (% of day zero inoculum) ([10]; ip 62 mg/kg, tid day 1): 15.9%
L1210/6MP, 6TG, 6TGR cells surviving (% of day zero inoculum) ([10]; ip 104 mg/kg, qd day 1): 54.5%
L1210/6MP, 6TG, 6TGR cells surviving (% of day zero inoculum) ([10]; ip 173 mg/kg, qd day 1): 4.6%
L1210/5FU cells surviving (% of day zero inoculum) ([11]; ip 62 mg/kg/day, qd days 1-7): 933%
L1210/5FU cells surviving (% of day zero inoculum) ([11]; ip 104 mg/kg/day, qd days 1,3,5,7): 525%
L1210/5FU cells surviving (% of day zero inoculum) ([11]; ip 104 mg/kg/day, qd days 1-7): 3%
L1210/5FU cells surviving (% of day zero inoculum) ([11]; ip 173 mg/kg/day, qd days 1,3,5,7): 13%
activity against 5-Fluorouracil resistant cells ([11]; large dosages): highly active against these resistant cells
activity against Lewis lung carcinoma [12]: No activity
